Reference: paper PMC7503767, “Alkoxyamines Designed as Potential Drugs against Plasmodium and Schistosoma Parasites” (Molecules, 2020)

Assays:
[1] = tested on: Adult S. mansoni; assay: In vitro antischistosomal activity on adult worms; type: cell-based, Schistosoma mansoni; details: 100 µg/mL; for Mean (±SD) survival time – Adult S. mansoni: observation up to 8 h (Table S1); for Time for the death of 100% worms: adult S. mansoni, observation up to 8 h
Text: The NMRI strain of Schistosoma mansoni was used for the experimentations. The parasite was maintained on an albino variety of Biomphalaria glabrata from Brazil (intermediate host) and in Golden Hamsters, Mesocricetus auratus (Janvier Labs, Le Genest-Saint-Isle, France). Detailed methods, for mollusk and hamster infections and for parasite recovery, were previously described.
Adult worms were recovered between 42 and 47 days after infection by hepatic perfusion technique. Twenty to fifty adult worms were disposed in 12-well Falcon® plate containing 2 mL of RPMI 1640 (supplemented with L-glutamine and Hepes 25 mM) and stored in an incubator chamber (37 °C; 5% CO2). Drug preparation started with dissolution of the drug in DMSO to give a 100 mg/mL stock solution. The dilution was complemented with Tween 80 and RPMI in order to obtain the following final ratio dilution: RPMI 1640/Tween 80/DMSO, 1000/0.95/3.8, v/v/v. The drug solution was added to Falcon plates that contained adult worms. The S. mansoni cultures were then incubated with each drug at a final concentration of 100 µg/mL. Positive control was carried out with a solution of praziquantel (Merck KGaA, Darmstadt, Germany) at a concentration of 100 µg/mL. Negative control was carried out with the same RPMI 1640/Tween 80/DMSO solution, but without any drug. Each test was performed in duplicate. Every hour, moving worms were counted in order to define the percentage of survivors. Parasites showing no body contractions during a 30 s observation were considered as dead. Observations were extended to 8 h. Mean survival times (± standard deviation) were calculated for each drug using Kaplan–Meier survival analyses.

[2] = Homolysis of the NO–C bond measured by EPR
Procedure: Homolysis rate constants kd’ were measured by EPR and estimated using Equation (1) as reported many times in the literature. Further, Ea and kd were estimated using Equation (2). (1) ln([nitroxide]∞−[nitroxide]t/[nitroxide]∞)=−kd·t (2) Ea=−RT ln([…] kd′ )

[3] = tested on: P. falciparum chloroquine-resistant strain FcB1-Columbia; assay: Antiplasmodial screen at 10 µM and chemosensitivity assay (SYBR Green I), FcB1-Columbia; type: cell-based, Plasmodium falciparum; details: FcB1-Columbia strain; read-out: IC50 on P. falciparum

Row | SMILES | Mean (±SD) survival time – Adult S. mansoni [1] [h] | Time for the death of 100% worms [1] [h] | activation energy Ea ([2]; t-BuPh) [kcal/mol] | re-estimated homolysis rate constant kd at 120 °C ([2]; t-BuPh) | further results
1 | CC(ON(C(C)(C)C)C(C)(C)C)c1ccncc1 (stereo not drawn) [14a] | 2.5 ± 0.10 | 3 | – | – | –
2 | CCOP(=O)(OCC)C(N(OC(C)c1cn(C)c[n+]1C)C(C)(C)C)C(C)(C)C.[I-] (stereo not drawn) [(RR/SS)-1r] | – | 4 | – | – | –
3 | CCOP(=O)(OCC)C(N(OC(C)c1cc(-c2ccccn2)nc(-c2ccccn2)c1)C(C)(C)CO[Si](C)(C)C(C)(C)C)C(C)(C)C (stereo not drawn) [(RR/SS)-6F, Diethyl(1-((1-([2,2′:6′,2′′-terpyridin]-4′-yl)ethoxy)(1-((tert-butyldimethylsilyl)oxy)-2-methylpropan-2-yl)amino)-2,2-dimethylpropyl)phosphonate] | – | – | 29.59 | 8.5 10^−3 s^−1 | half-lifetime t1/2 at 37 °C ([2]; t-BuPh): 24 days; homolysis rate constant kd′ ([2]; t-BuPh, 81 °C): 1.4 10^−4s^−1
4 | CCOP(=O)(OCC)C(N(OC(C)c1cn(C)c[n+]1C)C(C)(C)C)C(C)(C)C.[I-] (stereo not drawn) [(RS/SR)-1r] | – | 6 | – | – | –
5 | CCOP(=O)(OCC)C(N(OC(C)c1cc(-c2ccccn2)nc(-c2ccccn2)c1)C(C)(C)C)C(C)(C)C (stereo not drawn) [1F] | – | – | – | – | IC50 [3]: > 10 µM
6 | CCOP(=O)(OCC)C(N(OC(C)c1cc(-c2ccccc2)cc(-c2ccccc2)c1)C(C)(C)CO[Si](C)(C)C(C)(C)C)C(C)(C)C (stereo not drawn) [(RS/SR)-6G, Diethyl(1-((1-([1,1′:3′,1′′-terphenyl]-5′-yl)ethoxy)(1-((tert-butyldimethylsilyl)oxy)-2-methylpropan-2-yl)amino)-2,2-dimethylpropyl)phosphonate] | – | – | 29.8 | 6.50 10^−3 s^−1 | homolysis rate constant kd′ ([2]; t-BuPh, 92 °C): 3.5 10^−4s^−1
7 | CC(ON1C(C)(C)CC(O)CC1(C)C)c1ccccc1 (stereo not drawn) [8z] | 1.9 ± 0.1 | 2 | – | – | –
8 | CCOP(=O)(OCC)C(N(OC(C)c1cc(-c2ccccn2)nc(-c2ccccn2)c1)C(C)(C)CO[Si](C)(C)C(C)(C)C)C(C)(C)C (stereo not drawn) [(RS/SR)-6F, Diethyl(1-((1-([2,2′:6′,2′′-terpyridin]-4′-yl)ethoxy)(1-((tert-butyldimethylsilyl)oxy)-2-methylpropan-2-yl)amino)-2,2-dimethylpropyl)phosphonate] | – | – | 29.09 | 16.3 10^−3 s^−1 | half-lifetime t1/2 at 37 °C ([2]; t-BuPh): 10 days; homolysis rate constant kd′ ([2]; t-BuPh, 81 °C): 2.7 10^−4s^−1
9 | CCOP(=O)(OCC)C(N(OC(C)c1cc(-c2ccccc2)cc(-c2ccccc2)c1)C(C)(C)CO[Si](C)(C)C(C)(C)C)C(C)(C)C (stereo not drawn) [(RR/SS)-6G, Diethyl(1-((1-([1,1′:3′,1′′-terphenyl]-5′-yl)ethoxy)(1-((tert-butyldimethylsilyl)oxy)-2-methylpropan-2-yl)amino)-2,2-dimethylpropyl)phosphonate] | – | – | 30 | 5.10 10^−3 s^−1 | half-life ([2]; half-lifetime t1/2 at 37 °C, t-BuPh): 33.4 days; homolysis rate constant kd′ ([2]; t-BuPh, 92 °C): 2.7 10^−4s^−1
10 | CCOP(=O)(OCC)C(N(OC(C)c1ccc(C)cc1)C(C)(C)C)C(C)(C)C (stereo not drawn) [(RS/SR)-1s] | 3.3 ± 0.1 | 4 | – | – | –
11 | CCOP(=O)(OCC)C(N(OC(C)c1cn(C)cn1)C(C)(C)C)C(C)(C)C (stereo not drawn) [(RR/SS)-1q] | 3.3 ± 0.9 | 6 | – | – | –
12 | CCOP(=O)(OCC)C(N(OC(C)c1ccccc1)C(C)(C)C(=O)O)C(C)(C)C (stereo not drawn) [(RS/SR)-4z] | > 8 | > 8 | – | – | –
13 | CC(ON1C(C)(C)CCCC1(C)C)c1ccccc1 (stereo not drawn) [9z] | > 8 | > 8 | – | – | –
14 | CCOP(=O)(OCC)C(N(OC(C)c1cn(C)cn1)C(C)(C)C)C(C)(C)C (stereo not drawn) [(RS/SR)-1q] | 1.3 ± 0.2 | 2 | – | – | –
15 | CCOP(=O)(OCC)C(N(OC(C)c1cc(-c2ccccc2)cc(-c2ccccc2)c1)C(C)(C)CO)C(C)(C)C (stereo not drawn) [(RS/SR)-2G, Diethyl(1-((1-([1,1′:3′,1′′-terphenyl]-5′-yl)ethoxy)(1-hydroxy-2-methylpropan-2-yl)amino)-2,2-dimethylpropyl)phosphonate] | > 8 | > 8 | 28.87 | 21.6 10^−3 s^−1 | activation energy Ea ([2]; MeOH/water 2:1 pH = 7.0): 29.18 kcal/mol; half-lifetime t1/2 at 37 °C ([2]; MeOH/water 2:1 pH = 7.0): 12.7 days; re-estimated homolysis rate constant kd at 120 °C ([2]; MeOH/water 2:1 pH = 7.0): 14.4 10^−3 s^−1; homolysis rate constant kd′ ([2]; MeOH/water 2:1 pH = 7.0, 81 °C): 2.3 10^−4s^−1; half-lifetime t1/2 at 37 °C ([2]; t-BuPh): 7.5 days; homolysis rate constant kd′ ([2]; t-BuPh, 81 °C): 3.7 10^−4s^−1
